According to patent publication US20100068197A1, “PHARMACEUTICAL COMPOUNDS AS INHIBITORS OF CELL PROLIFERATION AND THE USE THEREOF” (Myriad Pharmaceuticals, Inc., priority 2008, published 2010):

Assays:
[1] = system: P388 murine leukemia cell line; experiment: P388 cytotoxicity, cellular viability by ATP-Lite; assay type: cell-based; details: compound concentration required to inhibit growth by 50%, intracellular ATP
Procedure: A P388 murine leukemia cell line was obtained from NCI, Frederick, Md. P388 cells were cultured in RPMI-1640 supplemented with 10% fetal bovine serum, 2 mM Glutamax, 1 mM sodium pyruvate, 0.1 mM non-essential amino acids and 10 mM HEPES. Cells were grown at 37° C. in a humidified 5% CO2 atmosphere. Exponentially growing P388 cells were plated at 5,000 cells/well in a 96-well flat-bottomed microtiter plate (Corning, Costar #3595). […] Cellular viability was determined 72 hours later by measuring intracellular ATP with ATP-Lite assay system. The effect of compounds on cell viability was calculated by comparing the ATP levels of cells exposed to test compound with those of cells exposed to DMSO. A semi-log plot of relative ATP levels versus compound concentration was used to calculate the compound concentration required to inhibit growth by 50% (IC50). Data was analyzed by Prism software (GraphPad; San Diego, Calif.) by fitting it to a sigmoidal dose response curve.

[2] = system: P388/ADR cell lines (overexpress the multidrug resistance pump MDR-1); experiment: Multidrug resistant cell assay, cell viability by ATP-lite; assay type: cell-based, murine
Excerpt: Cytotoxicity of compounds in multidrug resistant cells can be determined by administering compounds to cell lines that overexpress the multidrug resistance pump MDR-1 and determining the viability of the cell lines. P388/ADR cell lines are known to overexpress the multidrug resistance pump MDR-1 (also known as P-glycoprotein-1; Pgp-1).
P388/ADR cell lines are obtained from American Type Culture Collection (Manassas, Va.) and maintained in RPMI-1640 media supplemented with 10% FCS, 10 units/mL penicillin and streptomycin, 2 mM Glutamax and 1 mM sodium pyruvate (Invitrogen Corporation, Carlsbad, Calif.). For compound testing, cells are plated in 96 well dishes at a concentration of 1.5×10^4 cells/well. Cells are allowed to adhere to the plate overnight and then incubated with compounds at final concentrations ranging from 0.13 nM to 10 μM for 72 hours. Cell viability is then assessed using the ATP-lite reagent (Perkin Elmer, Foster City, Calif.). Plates are read on a Wallac Topcount luminescence reader (Perkin Elmer, Foster City, Calif.) and the results graphed in Prism software (Graphpad Software, Inc., San Diego, Calif.). Non-linear regression with variable slope analysis is performed to obtain IC50 concentration values.

[3] = Mus musculus, 72 h, multidrug resistant cells overexpressing MDR-1
[4] = multidrug resistant cells overexpressing MDR-1, 72 hours

SMILES	IC50 ([1]; Mus musculus, P388, 72 h)	IC50 ([1]; 72 hours)	IC50 [2, 3]	IC50 [2, 4]
COc1ccc(N(C)c2nc(NCCNC(=O)OC(C)(C)C)nc3ccccc23)cc1OC [Example 14, (2-{4-[(3,4-Dimethoxy-phenyl)-methyl-amino]-quinazolin-2-ylamino}-ethyl)-carbamic acid tert-butyl ester]	300 nM	340 nM	340 nM	350 nM
COc1ccc(N(C)c2nc(N3CCNCC3)nc3ccccc23)cc1 [Example 9, (4-Methoxy-phenyl)-methyl-(2-piperazin-1-yl-quinazolin-4-yl)-amine]	2600 nM		3200 nM	
COC(=O)NCCNc1nc(N(C)c2ccc(OC)c(OC)c2)c2ccccc2n1 [Example 21, (2-{4-[(3,4-Dimethoxy-phenyl)-methyl-amino]-quinazolin-2-ylamino}-ethyl)-carbamic acid methyl ester]	120 nM	64 nM	190 nM	150 nM
COc1ccc(N(C)c2nc(OCCN3CCN(CCO)CC3)nc3ccccc23)cc1 [Example 5, 2-[4-(2-{4-[(4-Methoxy-phenyl)-methyl-amino]-quinazolin-2-yloxy}-ethyl)-piperazin-1-yl]-ethanol]	3600 nM			
COc1ccc(N(C)c2nc(NCCCN(C)c3nc(N(C)c4ccc(OC)cc4)c4ccccc4n3)nc3ccccc23)cc1 [Example 48, 3-{4-[(4-Methoxy-phenyl)-methyl-amino]-quinazolin-2-ylamino}-1-({4-[(4-methoxy-phenyl)-methyl-amino]-quinazolin-2-yl}-methyl-amino)-propane]	70 nM		83 nM	
COc1ccc(N(C)c2nc(NCCNC(=O)CN)nc3ccccc23)cc1 [Example 41, 2-Amino-N-(2-{4-[(4-methoxy-phenyl)-methyl-amino]-quinazolin-2-ylamino}-ethyl)-acetamide]	1700 nM		5300 nM	
COc1ccc(N(C)c2nc(NCCOP(=O)(OC(C)(C)C)OC(C)(C)C)nc3ccccc23)cc1 [Example 10, Phosphoric acid di-tent-butyl ester 2-{4-[(4-methoxy-phenyl)-methyl-amino]-quinazolin-2-ylamino}-ethyl ester]			380 nM	
CCOC(=O)C1C=CC(C)n2c(=O)n(CCNc3nc(N(C)c4ccc(OC)cc4)c4ccccc4n3)c(=O)n21 (stereo not shown) [Example 6, 2-(2-{4-[(4-Methoxy-phenyl)-methyl-amino]-quinazolin-2-ylamino}-ethyl)-8-methyl-1,3-dioxo-2,3,5,8-tetrahydro-1H-[1,2,4]triazolo[1,2-a]pyridazine-5-carboxylic acid ethyl ester]	3000 nM		3500 nM	
COc1ccc(N(C)c2nc(CN(CCCO)Cc3nc(N(C)c4ccc(OC)cc4)c4ccccc4n3)nc3ccccc23)cc1 [Example 54, 3-(Bis-{4-[(4-methoxy-phenyl)-methyl-amino]-quinazolin-2-ylmethyl}-amino)-propan-1-ol]	64 nM		76 nM	
COc1ccc(N(C)c2nc(NCCOC(=O)[C@H](N)Cc3c[nH]c4ccccc34)nc3ccccc23)cc1 [Example 35, (R)-2-Amino-3-(1H-indol-3-yl)-propionic acid 2-{4-[(4-methoxy-phenyl)-methyl-amino]-quinazolin-2-ylamino}-ethyl ester]	220 nM		240 nM	
COc1ccc(N(C)c2nc(NCCOC(=O)[C@H](Cc3c[nH]c4ccccc34)NC(=O)OCc3ccccc3)nc3ccccc23)cc1 [Example 29, (S)-2-Benzyloxycarbonylamino-3-(1H-indol-3-yl)-propionic acid 2-{4-[(4-methoxy-phenyl)-methyl-amino]-quinazolin-2-ylamino}-ethyl ester]	32 nM		40 nM	
COc1ccc(N(C)c2nc(CNC(=O)OCc3ccccc3)nc3ccccc23)cc1 [Example 47, {4-[(4-Methoxy-phenyl)-methyl-amino]-quinazolin-2-ylmethyl}-carbamic acid benzyl ester]	23 nM		27 nM	
COc1ccc(N(C)c2nc(N[C@@H](C)C(=O)OC(C)(C)C)nc3ccccc23)cc1 [Example 28, (S)-2-{4-[(4-Methoxy-phenyl)-methyl-amino]-quinazolin-2-ylamino}-propionic acid tert-butyl ester]	150 nM		170 nM	
COc1ccc(N(C)c2nc(NCCOC(=O)[C@H](N)CCCCN)nc3ccccc23)cc1 [Example 15, (R)-2,6-Diamino-hexanoic acid 2-{4-[(4-methoxy-phenyl)-methyl-amino]-quinazolin-2-ylamino}-ethyl ester]	11 nM	15 nM	33 nM	22 nM
COc1ccc(N(C)c2nc(CNC(=O)Oc3ccccc3)nc3ccc(F)cc23)cc1 [Example 43, {6-Fluoro-4-[(4-methoxy-phenyl)-methyl-amino]-quinazolin-2-ylmethyl}-carbamic acid phenyl ester]	7.2 nM		5.7 nM	
COc1ccc(N(C)c2nc(NCCNCCNCCN)nc3ccccc23)cc1 [Example 4, N^2-{2-[2-(2-Amino-ethylamino)-ethylamino]-ethyl}-N^4-(4-methoxy-phenyl)-N^4-methyl-quinazoline-2,4-diamine]	550 nM		530 nM	
COc1ccc(N(C)c2nc(NCCNC(N)=O)nc3ccc(OC)cc23)cc1 [Example 22, (2-{6-Methoxy-4-[(4-methoxy-phenyl)-methyl-amino]-quinazolin-2-ylamino}-ethyl)-urea]	9300 nM			
COc1ccc(N(C)c2nc(NCCOC(=O)[C@@H](N)CC(N)=O)nc3ccccc23)cc1 [Example 33, (S)-2-Amino-succinamic acid 2-{4-[(4-methoxy-phenyl)-methyl-amino]-quinazolin-2-ylamino}-ethyl ester]	17 nM		18 nM	
COC(=O)NCCNc1nc(N(C)c2ccc(OC)cc2)c2cc(OC)ccc2n1 [Example 26, (2-{6-Methoxy-4-[(4-methoxy-phenyl)-methyl-amino]-quinazolin-2-ylamino}-ethyl)-carbamic acid methyl ester]	7200 nM		7400 nM	
CCOC(=O)C(Nc1nc(N(C)c2ccc(OC)cc2)c2ccccc2n1)C(C)C (stereo not shown) [Example 32, 2-{4-[(4-Methoxy-phenyl)-methyl-amino]-quinazolin-2-ylamino}-3-methyl-butyric acid ethyl ester]	240 nM		300 nM	
COc1ccc(N(C)c2nc(N[C@@H](C)C(=O)O)nc3ccccc23)cc1 [Example 36, (S)-2-{4-[(4-Methoxy-phenyl)-methyl-amino]-quinazolin-2-ylamino}-propionic acid]	780 nM		700 nM	
CNC(=O)NCCNc1nc(N(C)c2ccc(OC)cc2)c2cc(OC)ccc2n1 [Example 37, 1-(2-{6-Methoxy-4-[(4-methoxy-phenyl)-methyl-amino]-quinazolin-2-ylamino}-ethyl)-3-methyl-urea]	4700 nM		6600 nM	
COc1ccc(N(C)c2nc(N[C@@H](CO)c3ccccc3)nc3ccccc23)cc1 [Example 23, (R)-2-{4-[(4-Methoxy-phenyl)-methyl-amino]-quinazolin-2-ylamino}-2-phenyl-ethanol]	4600 nM		3300 nM	
COc1ccc(N(C)c2nc(NCC(O)CNc3nc(N(C)c4ccc(OC)cc4)c4ccccc4n3)nc3ccccc23)cc1 [Example 42, 1,3-Bis-{4-[(4-methoxy-phenyl)-methyl-amino]-quinazolin-2-ylamino}-propan-2-ol]	680 nM		880 nM	
COc1ccc(N(C)c2nc(NCCOP(=O)(O)OC(C)(C)C)nc3ccccc23)cc1 [Example 12, Phosphoric acid tent-butyl ester 2-{4-[(4-methoxy-phenyl)-methyl-amino]-quinazolin-2-ylamino}-ethyl ester]	3100 nM		7800 nM	
COC(=O)NCCNc1nc(N(C)c2ccc(OC)cc2)c2ccccc2n1 [Example 38, (2-{4-[(4-Methoxy-phenyl)-methyl-amino]-quinazolin-2-ylamino}-ethyl)-carbamic acid methyl ester]	19 nM		53 nM	
COc1ccc(N(C)c2nc(N(CCNC(C)=O)C(C)=O)nc3ccccc23)cc1 [Example 39, N-[2-(Acetyl-{4-[(4-methoxy-phenyl)-methyl-amino]-quinazolin-2-yl}-amino)-ethyl]-acetamide]	3800 nM			
COc1ccc(N(C)c2nc(NCCNC(C)=O)nc3ccc(C)cc23)cc1 [Example 18, N-(2-{4-[(4-Methoxy-phenyl)-methyl-amino]-6-methyl-quinazolin-2-ylamino}-ethyl)-acetamide]			2500 nM	1400 nM
